Measurements taken from patent publication US10165779B2, “Substituted pyrazolylpyrazole derivative and use of same as herbicide” (KYOYU AGRI CO., LTD., priority 2015, dated 2019).

Key:
Format in all cases: in vivo
Digitaria ciliaris [1] = assay: Weed foliar treatment test (Test 4, 4.0 to 5.0 leaf stage); conditions: 10 g a.i./10a; foliar spray at 4.0 to 5.0 leaf stage of Digitaria ciliaris (plant height 10 cm to 15 cm); 20 days
Method: (§1) Field soil was filled into a 1/4500 are pot followed by seeding with Digitaria ciliaris and Galinsoga parviflora, covering with soil and cultivating in a glass greenhouse at an average atmospheric temperature of 25° C.
(§2) Wettable powders of Target Compound (I) shown in Table 1 prepared in compliance with the preparation examples were diluted with water to the prescribed amount of chemical and uniformly sprayed onto the weeds using 100 liters of sprayed water per 10 are when Digitaria ciliaris had grown to the 4.0 to 5.0 leaf stage (plant height: 10 cm to 15 cm).
(§3) After treating for 20 days in a glass greenhouse at an average atmospheric temperature of 25° C., the herbicidal efficacy thereof was investigated.
(§4) Evaluation of herbicidal efficacy was carried out in the same manner as the above-mentioned Test Example 1.

Galinsoga parviflora = assay: as above; conditions: 10 g a.i./10a; foliar spray at 4.0 to 5.0 leaf stage of Digitaria ciliaris; 20 days
Method: as §1, §2, §3, §4

Echinochloa crus-galli = assay: Paddy herbicidal activity test; conditions: irrigated paddy pot, treated at 3.5 leaf stage of Echinochloa crus-galli, 30 days
Method: (§5) After treating for 30 days in a glass greenhouse at an average atmospheric temperature of 30° C., the herbicidal efficacy thereof was investigated. Evaluation of herbicidal efficacy was carried out by comparing growth inhibition rate (%) with an untreated group, while evaluation of phytotoxicity was carried out by comparing growth inhibition rate (%) with the state of a complete eradication group, and were evaluated at 11 levels indicated below. […] 2: 20% to less than 30% 3: 30% to less than 40% 4: 40% to less than 50% 5: 50% to less than 60% 6: 60% to less than 70% 7: 70% to less than 80% […]

Monochoria vaginalis = assay: Paddy herbicidal activity test; conditions: irrigated paddy pot, 30 days
Method: as §5

Scirpus juncoides = assay: Paddy herbicidal activity test; conditions: irrigated paddy pot, 30 days
Method: as §5

Oryza sativa = assay: Paddy herbicidal activity test, phytotoxicity to transplanted rice; conditions: rice transplanted at 2.0 leaf stage, 30 days
Method: as §5

Amaranthus retroflexus [2] = assay: Farming soil treatment test; conditions: soil surface spray prior to weed growth, 30 days
Method: (§6) Field soil was filled into a 1/6000 are pot followed by seeding with Digitaria cilaris, Chenopodium album and Amaranthus retroflexus and covering with soil.
(§7) Wettable powders of compounds of formula (I) shown in Table 1 prepared in compliance with the preparation examples were diluted. with water to the prescribed amount of chemical and uniformly sprayed onto each soil surface layer using 100 liters of sprayed water per 10 are prior to weed growth following seeding.
(§8) After treating for 30 days in a glass greenhouse at an average atmospheric temperature of 30° C., the herbicidal efficacy thereof was investigated.
as §4

Chenopodium album [3] = assay: Farming soil treatment test; conditions: soil surface spray prior to weed growth, 30 days
Method: as §6, §7, §8, §4

Digitaria ciliaris [4] = assay: Farming soil treatment test; conditions: soil surface spray prior to weed growth, 30 days
Method: as §6, §7, §8, §4

Amaranthus retroflexus [5] = assay: Weed foliar treatment test (Test 3, 1.0 to 2.0 leaf stage); conditions: foliar spray at 1.0 to 2.0 leaf stage of Digitaria ciliaris, 3 weeks
Method: (§9) Soil was filled into a 1/6000 are pot followed by seeding with Digitaria ciliaris, Chenopodium album and Amaranthus retroflexus, covering with soil, and cultivating in a glass greenhouse at an average atmospheric temperature of 25° C.
(§10) Wettable powders of Target Compound (I) shown in Table 1 prepared in compliance with the preparation examples were diluted with water to the prescribed amount of chemical and uniformly sprayed onto the weeds using 150 liters of sprayed water per 10 are when Digitaria ciliaris had grown to the 1.0 to 2.0 leaf stage.
(§11) After treating for 3 weeks in a glass greenhouse at an average atmospheric temperature of 25° C., the herbicidal efficacy thereof was investigated.
as §4

Chenopodium album [6] = assay: as above; conditions: foliar spray at 1.0 to 2.0 leaf stage of Digitaria ciliaris, 3 weeks
Method: as §9, §10, §11, §4

Digitaria ciliaris [7] = assay: as above; conditions: foliar spray at 1.0 to 2.0 leaf stage of Digitaria ciliaris, 3 weeks
Method: as §9, §10, §11, §4

Structure (SMILES)	herbicidal efficacy Digitaria ciliaris (Digitaria ciliaris [1])	herbicidal efficacy Galinsoga parviflora (Galinsoga parviflora)	herbicidal efficacy Echinochloa crus-galli (Echinochloa crus-galli; 1g a.i./10a)	herbicidal efficacy Echinochloa crus-galli (Echinochloa crus-galli; 5g a.i./10a)	herbicidal efficacy Monochoria vaginalis (Monochoria vaginalis; 1g a.i./10a)	herbicidal efficacy Monochoria vaginalis (Monochoria vaginalis; 5g a.i./10a)	herbicidal efficacy Scirpus juncoides (Scirpus juncoides; 1g a.i./10a)	herbicidal efficacy Scirpus juncoides (Scirpus juncoides; 5g a.i./10a)	phytotoxicity Oryza sativa (Oryza sativa; 1g a.i./10a)	phytotoxicity Oryza sativa (Oryza sativa; 5g a.i./10a)	herbicidal efficacy Amaranthus retroflexus (Amaranthus retroflexus [2]; 5g a.i./10a)	herbicidal efficacy Amaranthus retroflexus (Amaranthus retroflexus [2]; 10g a.i./10a)	herbicidal efficacy Chenopodium album (Chenopodium album [3]; 5g a.i./10a)	herbicidal efficacy Chenopodium album (Chenopodium album [3]; 10g a.i./10a)	herbicidal efficacy Digitaria ciliaris (Digitaria ciliaris [4]; 5g a.i./10a)	herbicidal efficacy Digitaria ciliaris (Digitaria ciliaris [4]; 10g a.i./10a)	herbicidal efficacy Amaranthus retroflexus (Amaranthus retroflexus [5]; 5g a.i./10a)	herbicidal efficacy Amaranthus retroflexus (Amaranthus retroflexus [5]; 10g a.i./10a)	herbicidal efficacy Chenopodium album (Chenopodium album [6]; 5g a.i./10a)	herbicidal efficacy Chenopodium album (Chenopodium album [6]; 10g a.i./10a)	further results
COC(=O)N(C(=O)OC)c1c([N+](=O)[O-])cnn1-c1nn2c(c1Cl)CCCC2 [Compound 3]	10 (10: 100%)	10 (10: 100%)	–	–	–	–	–	–	–	–	–	–	–	–	–	–	–	–	–	–	–
COC(=O)N(C(=O)OC)c1c(C#N)cnn1-c1nn2c(c1Br)CCCC2 [Compound 4]	10 (10: 100%)	10 (10: 100%)	10 (10: 100%)	10 (10: 100%)	10 (10: 100%)	10 (10: 100%)	9 (9: 90% to less than 100%)	10 (10: 100%)	0 (0 (exponent): 0% to less than 10% (growth inhibition rate))	1 (1: 10% to less than 20%)	10 (10: 100%)	10 (10: 100%)	9 (9: 90% to less than 100%)	10 (10: 100%)	10 (10: 100%)	10 (10: 100%)	10 (10: 100%)	10 (10: 100%)	10 (10: 100%)	10 (10: 100%)	herbicidal efficacy Digitaria ciliaris (Digitaria ciliaris [7]; 5g a.i./10a): 10 (10: 100%); herbicidal efficacy Digitaria ciliaris (Digitaria ciliaris [7]; 10g a.i./10a): 10 (10: 100%)
CC(C)COC(=O)N(C(=O)OCC(C)C)c1c(C#N)cnn1-c1nn2c(c1Cl)CCCC2 [Compound 13]	10 (10: 100%)	10 (10: 100%)	–	–	–	–	–	–	–	–	–	–	–	–	–	–	–	–	–	–	–
CCOC(=O)Nc1c([N+](=O)[O-])cnn1-c1nn2c(c1Cl)CCCC2 [Control agent 2.28, reference compound]	–	–	–	–	–	–	–	–	0 (0 (exponent): 0% to less than 10% (growth inhibition rate))	1 (1: 10% to less than 20%)	–	–	–	–	–	–	–	–	–	–	–
CCOC(=O)N(C(=O)OCC)c1c(C#N)cnn1-c1nn2c(c1Br)CCCC2 [Compound 8]	10 (10: 100%)	10 (10: 100%)	10 (10: 100%)	10 (10: 100%)	10 (10: 100%)	10 (10: 100%)	9 (9: 90% to less than 100%)	9 (9: 90% to less than 100%)	0 (0 (exponent): 0% to less than 10% (growth inhibition rate))	1 (1: 10% to less than 20%)	10 (10: 100%)	10 (10: 100%)	9 (9: 90% to less than 100%)	9 (9: 90% to less than 100%)	10 (10: 100%)	10 (10: 100%)	10 (10: 100%)	10 (10: 100%)	10 (10: 100%)	10 (10: 100%)	herbicidal efficacy Digitaria ciliaris (Digitaria ciliaris [7]; 5g a.i./10a): 10 (10: 100%); herbicidal efficacy Digitaria ciliaris (Digitaria ciliaris [7]; 10g a.i./10a): 10 (10: 100%)
C=CCOC(=O)N(C(=O)OCC=C)c1c([N+](=O)[O-])cnn1-c1nn2c(c1Cl)CCCC2 [Compound 15]	10 (10: 100%)	10 (10: 100%)	–	–	–	–	–	–	–	–	–	–	–	–	–	–	–	–	–	–	–
CC(C)OC(=O)N(C(=O)OC(C)C)c1c(C#N)cnn1-c1nn2c(c1Cl)CCCC2 [Compound 12]	10 (10: 100%)	10 (10: 100%)	–	–	–	–	–	–	–	–	–	–	–	–	–	–	–	–	–	–	–
CCOC(=O)N(C(=O)OC)c1c(C#N)cnn1-c1nn2c(c1Cl)CCCC2 [Compound 1, Methyl N-(3-chloro-4,5,6,7-tetrahydropyrazolo[1,5-a]pyridine-2-yl)-4-cyanopyr azol-5-yl)-N-ethoxycarbonyl Carbamate]	9 (9: 90% to less than 100%)	10 (10: 100%)	9 (9: 90% to less than 100%)	10 (10: 100%)	10 (10: 100%)	10 (10: 100%)	9 (9: 90% to less than 100%)	9 (9: 90% to less than 100%)	–	–	9 (9: 90% to less than 100%)	9 (9: 90% to less than 100%)	9 (9: 90% to less than 100%)	10 (10: 100%)	9 (9: 90% to less than 100%)	9 (9: 90% to less than 100%)	10 (10: 100%)	10 (10: 100%)	10 (10: 100%)	10 (10: 100%)	herbicidal efficacy Digitaria ciliaris (Digitaria ciliaris [7]; 5g a.i./10a): 9 (9: 90% to less than 100%); herbicidal efficacy Digitaria ciliaris (Digitaria ciliaris [7]; 10g a.i./10a): 10 (10: 100%)
